Here are results for 21 compounds from patent US5484934A, “Isothiazole derivatives, a process for production thereof and uses thereof” (Nihon Nohyaku Co., Ltd., priority 1992, dated 1996).

The subject of one assay is Coriolus versicolor. The experiment in a line: Inhibition of hypha growth on malt extract agar, Coriolus versicolor. It counts as cell-based. The conditions noted are these: Trametes versicolor, 28±2° C., 2 to 10 days, read-out: Controlling effect (growth inhibition rate) COV.
The subject of assay [1] is Pseudoperonospora cubensis. Kind of assay: Controlling effect on cucumber Downy mildew. As to conditions: 168 h, 200 ppm spray, inoculation after 24 hours, read-out: Controlling effect Pc (cucumber downy mildew). Format: in vivo.
The next assay concerns Phytophthora infestants. The experiment in a line: whole plant or invertebrate. It counts as in vivo. As to conditions: 168 h; read-out: Controlling effect Pi (tomato late blight).
The test system of another assay is Pyricularia oryzae. The experiment in a line: whole plant or invertebrate. The conditions noted are these: 168 h, read-out: Controlling effect Ps (rice blast). Format: in vivo.
The next assay deals with Botrytis cinerea. Kind of assay: Controlling effect (curing effect) on cucumber gray mold. Format: in vivo. As to conditions: 72 h, immersion of inoculated cotyledons, 15° C., read-out: Controlling effect Bc (cucumber gray mold). Here is the method:
Controlling effect (curing effect) on cucumber gray mold The cotyledons of potted cucumber plants at the 1 leaf stage were cut off and each of them was inoculated with a mycelial tuft of gray mold fungus (Botrytis cinerea) cultured on PSA medium. After having been placed in a moist chamber at 15° C. for 24 hours, the cotyledons were immersed in a 200 ppm liquid chemical containing each compound of the present invention as active ingredient. […]

Another assay has as its system Alternaria mali. The experiment in a line: Inhibition of hypha growth on malt extract agar, Alternaria mali. As to conditions: read-out: Controlling effect (growth inhibition rate) ALM.
In another assay the test system is Serpula lacrymans. Kind of assay: Inhibition of hypha growth on malt extract agar, Serpula lacrymans. The conditions noted are these: read-out: Controlling effect (growth inhibition rate) SEL.
In another assay the test system is Aspergillus niger. The experiment in a line: Inhibition of hypha growth on malt extract agar, Aspergillus niger. The conditions noted are these: read-out: Controlling effect (growth inhibition rate) ASN.
For the next assay, the system named is Trichoderma viride. Kind of assay: Inhibition of hypha growth on malt extract agar, Trichoderma viride. The conditions noted are these: read-out: Controlling effect (growth inhibition rate) TRV.
In another assay the test system is Fusarium oxysporum. Kind of assay: Inhibition of hypha growth on malt extract agar, Fusarium oxysporum. The conditions noted are these: read-out: Controlling effect (growth inhibition rate) FUO.
Another assay relates to Rhizopus nigricans. The experiment in a line: Inhibition of hypha growth on malt extract agar, Rhizopus nigricans. The conditions noted are these: Rhizopus stolonifer, read-out: Controlling effect (growth inhibition rate) RHS.
The subject of another assay is Tyromyces palustris. Kind of assay: Inhibition of hypha growth on malt extract agar, Tyromyces palustris. The conditions noted are these: read-out: Controlling effect (growth inhibition rate) TYP.
The subject of another assay is Chaetomium globosum. Kind of assay: Inhibition of hypha growth on malt extract agar, Chaetomium globosum. The conditions noted are these: read-out: Controlling effect (growth inhibition rate) CHG.
For assay [2], the system named is Cladosporium cladosporioides. The experiment in a line: Inhibition of hypha growth on malt extract agar, Cladosporium cladosporioides. As to conditions: read-out: Controlling effect (growth inhibition rate) CLC.

Method for Aspergillus niger: (§1) Each preparation to be tested was added to malt extract agar medium to adjust the concentration to 50 ppm, and the resulting mixture was dispensed into Petri dishes. As an inoculum, a prepared mycerial tuft of each test fungus was punched out together with agar by means of a 4-mm-diameter cork borer and inoculated on medium. The incubation temperature was adjusted to 28±2° .C (or 18±2° C. in the case of Selupula lacrymas).
(§2) The diameter of mycerial tuft was measured 2 to 10 days after the inoculation, and the inhibition rate of hypha growth (the following equation) was measured.
(§3) The controlling effect was evaluated according to the following criterion.
Method for Chaetomium globosum: as §1, §2, §3
Method for Fusarium oxysporum: as §1, §2, §3
Method for Rhizopus nigricans: as §1, §2
Method for Serpula lacrymans: as §1, §2
Method for Trichoderma viride: as §1, §2
Method for Tyromyces palustris: as §1, §2

For the compound `CS(=O)(=O)c1snc(OC(F)F)c1C#N` [Compound 24, 3-difluoromethoxy-4-cyano-5-methylsulfonylisothiazole], the inhibition at 50 ppm in the assay with Coriolus versicolor is 100%; in the assay with Alternaria mali, 100%; in the assay on Serpula lacrymans, 100%; in the assay on Aspergillus niger, 100%; in the assay with Trichoderma viride, 100%; in the assay with Fusarium oxysporum it was 85 to 99%. Also, the inhibition at 50 ppm is 85 to 99% in the assay with Rhizopus nigricans, 100% in the assay with Tyromyces palustris, 55 to 84% in the assay with Chaetomium globosum and 100% in assay [2]. Further, the pest or weed control at 200 ppm in assay [1] fell in the range of 95 to 100%; with Phytophthora infestants, 95 to 100%; in the assay on Pyricularia oryzae, 95 to 100%; in the assay with Botrytis cinerea it was 0 to 59%.
Consider `CCOc1nsc(S(=O)(=O)C(C)C)c1C#N` [Compound 38], for which the pest or weed control at 200 ppm lay in the range of 95 to 100% in assay [1], 95 to 100% in the assay on Phytophthora infestants, 95 to 100% in the assay on Pyricularia oryzae and 60 to 79% with Botrytis cinerea.
For `CCOc1nsc(S(=O)(=O)CC)c1C#N` [Compound 23], the pest or weed control at 200 ppm in assay [1] was 95 to 100%; in the assay on Phytophthora infestants, 95 to 100%; in the assay on Pyricularia oryzae it was 95 to 100%; with Botrytis cinerea it was 60 to 79%.
On to `CCOc1nsc(S(C)(=O)=O)c1C#N` [Compound 21], for which the pest or weed control at 200 ppm in assay [1] lay within 95 to 100%; in the assay with Phytophthora infestants, 95 to 100%; in the assay on Pyricularia oryzae, 95 to 100%; in the assay with Botrytis cinerea, 60 to 79%.
For the compound `C#CCOc1nsc(S(=O)(=O)CC)c1C#N` [Compound 58], the pest or weed control at 200 ppm in [1] is 95 to 100%; with Phytophthora infestants it was 95 to 100%; in the assay with Pyricularia oryzae it was 80 to 94%; in the assay on Botrytis cinerea it was 0 to 59%.
With `CCCCS(=O)(=O)c1snc(OC(C)C)c1C#N` [Compound 52], the pest or weed control at 200 ppm in assay [1] is 95 to 100%; with Phytophthora infestants, 95 to 100%; in the assay on Pyricularia oryzae, 80 to 94%; with Botrytis cinerea it was 60 to 79%.
`C#CCOc1nsc(S(=O)(=O)c2ccc(Cl)cc2)c1C#N` [Compound 120]: the pest or weed control at 200 ppm in [1] lay within 95 to 100%; with Phytophthora infestants it was 95 to 100%; with Pyricularia oryzae it was 95 to 100%; with Botrytis cinerea, 60 to 79%.
Regarding `CCS(=O)(=O)c1snc(OC)c1C#N` [Compound 37], the pest or weed control at 200 ppm in assay [1] was 95 to 100%; with Phytophthora infestants, 95 to 100%; with Pyricularia oryzae, 95 to 100%; in the assay on Botrytis cinerea it was 0 to 59%.
Take `C#CCOc1nsc(S(=O)(=O)c2ccccc2)c1C#N` [Compound 104]: the pest or weed control at 200 ppm was in the range of 80 to 94% in assay [1], 95 to 100% in the assay on Phytophthora infestants, 95 to 100% in the assay on Pyricularia oryzae and 60 to 79% in the assay with Botrytis cinerea.
Regarding `CCOC(=O)c1ccccc1S(=O)(=O)c1snc(O)c1C#N` [Compound 5], the pest or weed control at 200 ppm in assay [1] lay within 60 to 79%; in the assay on Phytophthora infestants, 80 to 94%; with Pyricularia oryzae, 60 to 79%; in the assay on Botrytis cinerea, 0 to 59%.
Regarding `CCOc1nsc(S(=O)(=O)C(F)F)c1C#N` [Compound 141], the pest or weed control at 200 ppm in assay [1] was in the range of 95 to 100%; with Phytophthora infestants, 95 to 100%; with Pyricularia oryzae, 95 to 100%; with Botrytis cinerea, 80 to 94%.
Take `CCC(C)Oc1nsc(S(=O)(=O)C(F)F)c1C#N` (stereo not shown) [Compound 145]: the pest or weed control at 200 ppm in assay [1] was 95 to 100%; in the assay with Phytophthora infestants, 95 to 100%; in the assay on Pyricularia oryzae it was 95 to 100%; in the assay with Botrytis cinerea, 0 to 59%.
For the compound `COc1nsc(S(=O)(=O)C(C)C)c1C#N` [Compound 35], the pest or weed control at 200 ppm in assay [1] is 95 to 100%; in the assay with Phytophthora infestants, 95 to 100%; with Pyricularia oryzae, 95 to 100%; with Botrytis cinerea it was 0 to 59%.
As to `Cc1ccc(S(=O)(=O)c2snc(O)c2C#N)cc1` [Compound 2], the inhibition at 50 ppm in the assay with Coriolus versicolor lay in the range of 85 to 99%; with Alternaria mali, 55 to 84%; with Serpula lacrymans, 55 to 84%; with Aspergillus niger, 55 to 84%; in the assay on Trichoderma viride, 85 to 99%; in the assay with Fusarium oxysporum it was 55 to 84%. In addition, the inhibition at 50 ppm fell in the range of 85 to 99% with Rhizopus nigricans, 55 to 84% in the assay with Tyromyces palustris, 85 to 99% in the assay with Chaetomium globosum and 55 to 84% in assay [2].
For `CC(C)S(=O)(=O)c1snc(OC(F)F)c1C#N` [Compound 27], the pest or weed control at 200 ppm in assay [1] was in the range of 80 to 94%; in the assay on Phytophthora infestants it was 95 to 100%; in the assay with Pyricularia oryzae it was 95 to 100%; with Botrytis cinerea, 0 to 59%.
As to `CCOCCOc1nsc(S(C)(=O)=O)c1C#N` [Compound 73], the inhibition at 50 ppm was 100% in the assay with Coriolus versicolor; 85 to 99% in the assay on Alternaria mali; 100% in the assay with Serpula lacrymans; 85 to 99% with Aspergillus niger; 85 to 99% in the assay with Trichoderma viride; 100% with Fusarium oxysporum. For the same compound, the inhibition at 50 ppm was 100% in the assay with Rhizopus nigricans, 100% in the assay with Tyromyces palustris, 100% with Chaetomium globosum and 85 to 99% in [2].
Regarding `COc1nsc(S(=O)(=O)c2ccc(C)cc2)c1C#N` [Compound 90, 3-methoxy-4-cyano-5-(4-methylphenyl) sulfonylisothiazole], the pest or weed control at 200 ppm in assay [1] fell in the range of 95 to 100%; in the assay on Phytophthora infestants, 95 to 100%; in the assay with Pyricularia oryzae, 95 to 100%; in the assay with Botrytis cinerea, 60 to 79%.
Regarding `COc1ccc(S(=O)(=O)c2snc(OC)c2C#N)cc1` [Compound 94], the inhibition at 50 ppm in the assay with Coriolus versicolor, in the assay with Alternaria mali, in the assay on Serpula lacrymans, with Aspergillus niger, with Trichoderma viride and with Fusarium oxysporum was 100% throughout. Moreover, the inhibition at 50 ppm (in the assay on Rhizopus nigricans; with Tyromyces palustris; in the assay with Chaetomium globosum; in assay [2]) was 100% each time.
With `COC(=O)CS(=O)(=O)c1snc(OC)c1C#N` [Compound 81], the inhibition at 50 ppm in the assay with Coriolus versicolor, in the assay with Alternaria mali, in the assay on Serpula lacrymans, with Aspergillus niger, with Trichoderma viride and in the assay with Fusarium oxysporum was 100% throughout. Also, the inhibition at 50 ppm (in the assay with Rhizopus nigricans; in the assay on Tyromyces palustris; in the assay with Chaetomium globosum; in [2]) was 100% in each case.
`N#Cc1c(O)nsc1S(=O)(=O)c1ccc(F)cc1` [Compound 11]: the inhibition at 50 ppm in the assay on Coriolus versicolor fell in the range of 85 to 99%; in the assay on Alternaria mali, 55 to 84%; in the assay with Serpula lacrymans, 55 to 84%; with Aspergillus niger, 55 to 84%; with Trichoderma viride it was 85 to 99%; with Fusarium oxysporum it was 85 to 99%. In addition, the inhibition at 50 ppm fell in the range of 85 to 99% with Rhizopus nigricans, 85 to 99% in the assay on Tyromyces palustris, 85 to 99% in the assay with Chaetomium globosum and 55 to 84% in assay [2].
`CCS(=O)(=O)c1snc(OC(F)F)c1C#N` [Compound 25]: the pest or weed control at 200 ppm fell in the range of 95 to 100% in assay [1], 95 to 100% in the assay on Phytophthora infestants, 80 to 94% in the assay on Pyricularia oryzae and 60 to 79% in the assay with Botrytis cinerea.

The inhibition is the relative decrease from the control value, in per cent.
